According to DBAASP:
In brackets after ≈: the same amount, converted by molar mass. Each block holds one compound with its values, some of them ahead of it.

What was measured:
Test in all cases: ≥ marks a high value that may be exact or a test limit, other limits are often not marked, values filed in µg/mL are converted to µM
[1] = system: Klebsiella pneumoniae ATCC 10031
[2] = system: Shigella dysenteriae ATCC 9752
[3] = system: Salmonella enterica subsp. enterica serovar Typhimurium ATCC 14028
[4] = system: Pseudomonas putida
[5] = system: Bacillus subtilis KCTC 1021
[6] = system: Saccharomyces cerevisiae
[7] = system: Proteus mirabilis ATCC 25933
[8] = system: Micrococcus luteus ATCC 4698
[9] = system: Escherichia coli
[10] = system: Candida albicans
[11] = system: Escherichia coli DH5alpha
[12] = system: Serratia marcescens
[13] = system: Pseudomonas aeruginosa ATCC 9027
[14] = system: Staphylococcus epidermidis ATCC 12228
[15] = system: Mammaliicoccus lentus
[16] = system: Bacillus megaterium Bm11
[17] = system: Micrococcus luteus
[18] = system: Phytophthora nicotianae PG344
[19] = system: Candida tropicalis
[20] = system: Pseudomonas aeruginosa ATCC 27853
[21] = system: Candida albicans ATCC 90028
[22] = system: Staphylococcus aureus T7/20
[23] = system: Enterobacter cloacae HNTCC 53001
[24] = system: Staphylococcus aureus NCTC 8325
[25] = system: Enterococcus faecalis ATCC 29212
[26] = system: Escherichia coli ATCC 25922
[27] = system: Staphylococcus epidermidis RP62A
[28] = system: Klebsiella pneumoniae KK3 9904
[29] = system: Escherichia coli W3110
[30] = system: Enterococcus faecalis
[31] = system: Streptococcus mitis ATCC 903
[32] = system: Pseudomonas aeruginosa PAK
[33] = system: Streptococcus mutans UA159
[34] = system: Staphylococcus aureus
[35] = system: Streptococcus gordonii Challis DL1
[36] = system: Streptococcus sobrinus ATCC 33478
[37] = system: Streptococcus sanguinis NY101

MIC [1]: 9.58 µM (≈ 25 µg/mL)
MIC [2]: 19.2 µM (≈ 50 µg/mL)
MIC [3]: 19.2 µM (≈ 50 µg/mL)
MIC [4]: ≥ 57.5 µM
MIC [5]: 3.83 µM (≈ 9.99 µg/mL)
MIC [6]: 19.2 µM (≈ 50 µg/mL)
MIC [7]: ≥ 76.6 µM
MIC [8]: 0.958 µM (≈ 2.5 µg/mL)
MIC [9]: 38.3 µM (≈ 99.9 µg/mL)
MIC [10]: 19.2 µM (≈ 50 µg/mL)
MIC [11]: 9.58 µM (≈ 25 µg/mL)
MIC [12]: ≥ 76.6 µM
MIC [13]: 57.5 µM (≈ 150 µg/mL)
MIC [14]: 3.83 µM (≈ 9.99 µg/mL)
Compound: CC[C@H](C)[C@@H]1NC(=O)[C@H](CCCCN)NC(=O)[C@@H](NC(=O)[C@@H](NC(=O)[C@@H](NC(=O)[C@@H](NC(=O)[C@@H]2CCCN2C(=O)[C@H](CC(C)C)NC(=O)[C@H](Cc2ccccc2)NC(=O)[C@H](CC(N)=O)NC(=O)[C@H](C)NC(=O)[C@H](C)NC(=O)[C@H](CC(C)C)NC(=O)CNC(=O)[C@H](C)NC(=O)[C@H](CC(C)C)NC(=O)[C@H](CC(C)C)NC(=O)[C@@H]2CCCN2C(=O)[C@H](CC(C)C)NC(=O)[C@@H](N)Cc2ccccc2)[C@@H](C)O)[C@@H](C)CC)[C@@H](C)CC)CSSC[C@@H](C(=O)O)NC(=O)[C@H](CCCCN)NC(=O)[C@H](Cc2ccc(O)cc2)NC(=O)[C@H](CO)NC1=O [FLPLLAGLAANFLPTIICKISYKC]

MIC [15]: ≥ 50 µM
MIC [16]: 20 µM (≈ 42.7 µg/mL)
MIC [17]: 10 µM (≈ 21.3 µg/mL)
MIC [18]: ≥ 75 µM
MIC [19]: 11 µM (≈ 23.5 µg/mL)
Compound: CC(C)C[C@H](N)C(=O)N[C@H](C(=O)N[C@@H](CCCN=C(N)N)C(=O)NCC(=O)N[C@H]1CSSC[C@@H](C(=O)N[C@@H](Cc2ccccc2)C(=O)N[C@H](C(=O)N[C@@H](CCCN=C(N)N)C(N)=O)C(C)C)NC(=O)[C@@H]2CCCN2C(=O)[C@H](CCCCN)NC(=O)[C@@H]2CCCN2C(=O)[C@@H]2CCCN2C(=O)[C@H](Cc2ccc(O)cc2)NC(=O)[C@H](CO)NC(=O)[C@H](CCCCN)NC(=O)[C@H]([C@@H](C)O)NC(=O)[C@H](Cc2c[nH]c3ccccc23)NC1=O)C(C)C [LVRGCWTKSYPPKPCFVR]

MIC [7]: ≥ 100 µM
MIC [20]: 6 µM (≈ 20.2 µg/mL)
MIC [21]: ≥ 100 µM
MIC [22]: 25 µM (≈ 84 µg/mL)
MIC [23]: 6 µM (≈ 20.2 µg/mL)
MIC [24]: 12.5 µM (≈ 42 µg/mL)
MIC [25]: 25 µM (≈ 84 µg/mL)
MIC [26]: 3 µM (≈ 10.1 µg/mL)
MIC [27]: 12.5 µM (≈ 42 µg/mL)
MIC [28]: 6 µM (≈ 20.2 µg/mL)
Compound: CC[C@H](C)[C@H](NC(=O)CN)C(=O)N[C@@H](CCSC)C(=O)N[C@@H](CO)C(=O)N[C@@H](CC(C)C)C(=O)N[C@@H](Cc1ccccc1)C(=O)N[C@@H](CCCCN)C(=O)NCC(=O)N[C@H](C(=O)N[C@@H](CC(C)C)C(=O)N[C@@H](CCCCN)C(=O)N[C@H](C(=O)N[C@@H](C)C(=O)NCC(=O)N[C@@H](CCCCN)C(=O)N[C@@H](Cc1cnc[nH]1)C(=O)N[C@H](C(=O)N[C@@H](C)C(=O)NCC(=O)N[C@@H](CO)C(=O)N[C@@H](CC(C)C)C(=O)N[C@H](C(=O)N[C@@H](CC(=O)O)C(=O)N[C@@H](CCC(N)=O)C(=O)N[C@@H](CC(C)C)C(=O)N[C@@H](CCCCN)C(=O)N[C@H]1CSSC[C@@H](C(=O)O)NC(=O)CNC(=O)CNC(=O)[C@H]([C@@H](C)O)NC(=O)[C@H]([C@@H](C)CC)NC(=O)[C@H](CCCCN)NC1=O)C(C)C)C(C)C)[C@@H](C)O)C(C)C [GIMSLFKGVLKTAGKHVAGSLVDQLKCKITGGC]

MIC [29]: ≥ 338 µM
MIC [30]: ≥ 338 µM
MIC [31]: ≥ 338 µM
MIC [32]: ≥ 338 µM
MIC [33]: ≥ 338 µM
MIC [34]: > 338 µM
MIC [35]: ≥ 338 µM
MIC [36]: ≥ 338 µM
MIC [37]: ≥ 338 µM
Compound: NCCCC[C@H](NC(=O)[C@H](Cc1c[nH]c2ccccc12)NC(=O)[C@@H](N)Cc1c[nH]c2ccccc12)C(=O)N[C@@H](CC(=O)O)C(=O)N[C@@H](Cc1c[nH]c2ccccc12)C(=O)N[C@@H](Cc1c[nH]c2ccccc12)C(=O)N[C@@H](CCC(=O)O)C(=O)N[C@@H](CCCN=C(N)N)C(=O)N[C@@H](Cc1c[nH]c2ccccc12)C(N)=O [WWKDWWERW]
